# According to patent publication US12194081B2, “ARGINASE1 polypeptides” (IO BIOTECH APS, priority 2018, dated 2025):
# Experiments:
# [1] = tested on: PBMCs from healthy donors and cancer patients; assay: ex vivo IFNγ ELISPOT of PBMCs without prior peptide stimulation; type: cell-based, human; conditions: 4 healthy donors and 2 cancer patients; FIG. 4A
# Experimental: For in vitro ELISPOT, PBMCs from cancer patients and healthy donors were pulsed with 20 μM of Arginase 1-derived peptides and 120 U/ml IL-2 in 24-well plates for 7 days before being used in an ELISPOT assay. The cells were placed in 96-well nitrocellulose ELISPOT plates (MultiScreen MAIP N45; Millipore) pre-coated with IFNγ capture antibody (Mabtech). Arginase peptides added to a final concentration of 5 μM and plates incubated at 37° C. for 14-16 hours. After the incubation the cells were washed off and secondary biotinylated Ab (Mabtech, cat. 3420-6-1000) was added for 2 hours at room temperature. Unbound secondary antibody was washed off and streptavidin conjugated alkaline phosphatase (AP) (Mabtech, cat. 3310-10) was added for 1 hour at room temperature. Unbound conjugated enzyme was washed off and the assay was developed by adding BCIP/NBT substrate (Mabtech, cat. 3650-10). Developed ELISPOT plates were analyzed on CTL ImmunoSpot S6 Ultimate-V analyzer using Immunospot software v5.1. Responses were reported as the difference between average numbers of spots in wells stimulated with Arginase 1 and wells without added peptide.
# PBMCs from 4 healthy donors and 2 cancer patients (1 breast cancer and 1 malignant melanoma) that had shown strong responses in in vitro ELISPOT were directly tested for responses to ArgLong2 peptide in ex vivo IFNγ ELISPOT.
# [2] = tested on: CD4+ and CD8+ T cells in PBMCs; assay: Intracellular staining for IFNγ and TNFα in CD4+ and CD8+ T cells; type: cell-based, human
# Experimental: Intracellular staining of cell cultures was performed after PBMCs were stimulated with arginase-derived peptides for 5 hours in the presence of BD GolgiPlug™ (added after the first hour of peptide stimulation). Stimulated cells were stained with fluorescently labeled antibodies for surface markers (CD3, CD4, CD8) and thereafter permeabilized by using Fixation/Permeabilization and Permeabilization Buffer (eBioscience, cat. 00-5123-43), according to manufacturer's instructions. Permeabilized cells were then stained with fluorochrome-labeled antibodies for IFNγ and TNFα. Flow cytometry analysis was performed on a FACSCanto™ II (BD Biosciences). Antibodies used: IFNγ-APC (cat. 341117), TNFα-455 BV421 (cat. 562783), CD4-FITC (cat. 347413), CD8-PerCP (cat. 345774), CD3-APC-H7 (cat. 560275) (all from BD Biosciences), dead cells stain-FVS510 (564406, BD Biosciences) according to manufacturer's instructions.
# [3] = tested on: PBMCs stimulated with IL-4, IL-13 or IL-2; assay: IFNγ ELISPOT of PBMCs pre-stimulated with Th2 cytokine (IL-4/IL-13) or IL-2; type: cell-based, human
# Source text: To check for IL-4 induced Arg1 responses, PBMCs were stimulated with IL-4 (100 or 50 U/ml) and/or IL-2 (120 or 60 U/ml) for a week before being set up in the ELISPOT assay as described above.
# The PBMCs were thawed and stimulated with IL-4, (50 U/ml or 100 U/ml), IL-2 (120 U/ml) or a combination of IL-4 and IL-2 (50 U/ml and 60 U/ml respectively) for one week before being tested in IFNγ ELISPOT for responses against ArgLong2. Non-stimulated cells were used as control.
# Next, PBMCs from 2 cancer patients (BC30 (breast cancer), MM27 (malignant melanoma)) and 6 healthy donors that had previously shown strong spontaneous ex vivo responses against ArgLong2 were stimulated with either low dose IL-2 (120 U/ml) or IL-4 (100 U/ml) for 7 days. Non-stimulated cells were used as control. After 7 days in culture, PBMCs were tested for reactivity against ArgLong2 in IFNγ ELISPOT.
# In a separate experiment, PBMCs from a healthy donor (HD22, known to have a pre-existing ex vivo response against ArgLong2) were treated with IL-4 (100 U/ml) or IL-13 (20 U/ml) for 7 days in order to increase presentation of the Arginase 1-derived peptides in the PBMC culture and thus stimulate the intrinsic ArgLong2 specific T cells present in the PBMCs. After 7 days of stimulation with IL-4 or IL-13, the PBMCs were analysed in IFNγ ELISPOT assay to check the changes in the frequency of the ArgLong2-specific T cells.
# [4] = tested on: C57BL/6 mice; assay: Peptide vaccination of C57BL/6 mice, IFNγ ELISPOT of spleen and draining lymph node cells; type: in vivo, mouse; conditions: 100 μg peptide s.c. with Montanide ISA 51 VG; one vaccination; day 7; spleen and dLNs; FIG. 6
# Experimental: Animals were vaccinated subcutaneously with 100 μg peptide in DMSO/H2O in a 1:1 emulsion with incomplete Montanide ISA 51 VG. Montanide ISA 51 VG+DMSO/H2O served as a control vaccine. For subsequent analysis of the immune response to the ArgLong2 peptide, mice were sacrificed on day 7 and spleen and draining lymph nodes (dLNs) were harvested for ELISPOT setup.
# Murine immune cells were subjected to ELISPOT analysis. Single cell suspension was prepared from spleen or dLNs by passage through a cell strainer. After lysis of red blood cells, 0.6-0.8×10^6 cells/well were seeded into ELISPOT plates coated with anti-IFNγ antibody. Peptide of interest was added to designated wells and cells were incubated overnight with peptide. The next day, cells were removed, plates washed and incubated with biotinylated detection antibody. Finally, after addition of Streptavidin-ALP and substrate visible spots appear. Each spot corresponds to an individual IFNγ producing cell. Plates were analysed in an Immunospot analyser and plotted.
sequence,measurement,setting,value
"ISAKDIVYIGLRDVDPGEHYILKTLGIKYFSMTEVDRL (Peptide fragment of human Arginase 1 (ArgLong2)) [38-mer, positions 169-206 of full length human Arginase 1]",spontaneous responses in ex vivo IFNγ ELISPOT,[1],significant spontaneous responses in all 6 donors
same,"ex vivo CD4+ responses, intracellular staining","[2]; PBMCs from two cancer patients (MM27, BC30) without prior peptide stimulation, FIG. 3B left",ex vivo CD4+ responses in PBMCs from both cancer patients
same,"ex vivo CD8+ responses, intracellular staining","[2]; PBMCs from two cancer patients (MM27, BC30) without prior peptide stimulation, FIG. 3B right",ex vivo CD8+ responses in the breast cancer patient PBMCs
same,"CD4+ T cell responses, in vitro intracellular staining","[2]; two healthy donors and one breast cancer patient, one week after stimulation with ArgLong2 and low dose IL-2, FIG. 3A left",detected in one healthy donor and in the breast cancer patient PBMCs
same,"CD8+ T cell responses, in vitro intracellular staining","[2]; two healthy donors and one breast cancer patient, one week after stimulation with ArgLong2 and low dose IL-2, other healthy donor showed only CD8+ response, FIG. 3A right",detected in one healthy donor and in the breast cancer patient PBMCs
same,ArgLong2 responses in IL-4 and IL-13 treated PBMC cultures,"[3]; healthy donor HD22, IL-4 100 U/ml or IL-13 20 U/ml for 7 days, vs untreated control, FIG. 10",Increased ArgLong2 responses
same,cultures with increased responses in IL-4 stimulated cultures,"[3]; out of 8 cultures (2 cancer patients, 6 healthy donors), IL-4 100 U/ml for 7 days vs unstimulated and IL-2 stimulated controls, FIG. 5B",6 cultures
same,responses against ArgLong2 after IL-4 stimulation of PBMCs,"[3]; single melanoma patient, IL-4 50 or 100 U/ml, IL-2 120 U/ml or IL-4+IL-2 for one week, compared with no stimulation or IL-2 alone, FIG. 5A",Strong significant responses were seen in all IL-4 stimulated groups
same,"immunogenicity in mice (vaccine-specific T cell responses, IFNγ ELISPOT)",[4],strongly immunogenic
